Experimental data from patent publication US9701689B2, “Substituted pyridines and pyridazines as CCR10 receptor inhibitors” (KYOWA HAKKO KIRIN CO., LTD., priority 2012, dated 2017).

Target: T1, human CCR10 (Homo sapiens, UniProt P46092)
T1 construct: expressed in transfected cells; host or cells: KJMGER8 cells (Namalwa cell-derived line), beta-estradiol-induced; hCCR10G16 cells
T1 sequence (P46092 1-362): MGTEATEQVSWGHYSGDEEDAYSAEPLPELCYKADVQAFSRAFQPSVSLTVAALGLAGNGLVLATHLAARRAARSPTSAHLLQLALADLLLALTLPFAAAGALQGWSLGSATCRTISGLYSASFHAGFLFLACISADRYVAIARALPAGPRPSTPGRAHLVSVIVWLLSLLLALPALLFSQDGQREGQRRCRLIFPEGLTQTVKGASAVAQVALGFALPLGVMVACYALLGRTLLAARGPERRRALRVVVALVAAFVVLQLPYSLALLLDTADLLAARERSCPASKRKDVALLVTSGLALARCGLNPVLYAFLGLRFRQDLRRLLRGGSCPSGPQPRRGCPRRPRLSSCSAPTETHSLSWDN
Test: CCR10 antagonistic effect: calcium assay of human CCR10 (CTACK-induced increase of intracellular calcium in hCCR10G16 cells)
Type: cell-based
Conditions: at a concentration of not more than 1000 nmol/L; human CCR10-expressing hCCR10G16 cells, 300 nmol/L CTACK added; read-out: inhibition of increase in the calcium ion concentration
In short: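 Inhibition of CTACK-evoked calcium flux (max minus min Fluo-3 fluorescence over ~5 min, FDSS) was calculated against control in β-estradiol-induced human CCR10/Gα16 KJMGER8 cells, after 30 min compound preincubation at 37 °C; CTACK added from a 300 nmol/L solution.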

SMILES: CC(=O)NS(=O)(=O)c1cc(Nc2ccc(F)cc2C)c(C(=O)N2CCC(c3ccc(F)cc3)CC2)cn1 [Compound 13, N-{4-(4-fluoro-2-methylphenylamino)-5-[4-(4-fluorophenyl)piperidine-1-carbonyl]pyridine-2-sulfonyl}acetamide]
- inhibition at up to 1 µM: ≥ 50%

SMILES: Cc1cc(NS(=O)(=O)c2ncc(C(=O)N3CCC(c4ccc(F)cc4)CC3)c(NCc3ccccc3)c2C)sn1 [Compound 251, 4-(benzylamino)-5-[4-(4-fluorophenyl)piperidine-1-carbonyl]-3-methyl-N-(3-methylisothiazol-5-yl)pyridine-2-sulfonamide]
- inhibition at up to 1 µM: ≥ 50%

SMILES: Cc1cc(F)ccc1Nc1c(C(=O)N2CCC(c3ccc(F)cc3)CC2)cnc(S(=O)(=O)Nc2ccon2)c1Cl [Compound 190, 3-chloro-4-(4-fluoro-2-methylphenylamino)-5-[4-(4-fluorophenyl)piperidine-1-carbonyl]-N-(isoxazol-3-yl)pyridine-2-sulfonamide]
- inhibition at up to 1 µM: ≥ 50%

SMILES: CC(=O)CNS(=O)(=O)c1cc(Nc2ccc(F)cc2C)c(C(=O)N2CCC(c3ccc(F)cc3)CC2)cn1 [Compound 131, 4-(4-fluoro-2-methylphenylamino)-5-[4-(4-fluorophenyl)piperidine-1-carbonyl]-N-(2-oxopropyl)pyridine-2-sulfonamide]
- inhibition at up to 1 µM: ≥ 50%

SMILES: Cc1cc(NS(=O)(=O)c2cc(Nc3ccc(F)cc3C)c(C(=O)N3CCC(c4ccc(F)cc4)CC3)cn2)no1 [Compound 157, 4-(4-fluoro-2-methylphenylamino)-5-[4-(4-fluorophenyl)piperidine-1-carbonyl]-N-(5-methylisoxazol-3-yl)pyridine-2-sulfonamide]
- inhibition at up to 1 µM: ≥ 50%

SMILES: CCNC(=O)NS(=O)(=O)c1cc(Nc2cc(C)c(Cl)cc2C)c(C(=O)N2CCC(c3ccc(F)cc3)CC2)cn1 [Compound 166, 4-(4-chloro-2,5-dimethylphenylamino)-N-(ethylcarbamoyl)-5-[4-(4-fluorophenyl)piperidine-1-carbonyl]pyridine-2-sulfonamide]
- inhibition at up to 1 µM: ≥ 50%

SMILES: Cc1ccc(Nc2cc(S(N)(=O)=O)ncc2C(=O)N2CCC(c3ccc(F)cc3)CC2)c(F)c1 [Compound 56, 4-(2-fluoro-4-methylphenylamino)-5-[4-(4-fluorophenyl)piperidine-1-carbonyl]pyridine-2-sulfonamide]
- inhibition at up to 1 µM: ≥ 50%

SMILES: Cc1nc(C(F)(F)F)ccc1Nc1c(C(=O)N2CCC(c3ccc(F)cc3)CC2)cnc(S(N)(=O)=O)c1C [Compound 245, 5-[4-(4-fluorophenyl)piperidine-1-carbonyl]-3-methyl-4-[2-methyl-6-(trifluoromethyl)pyridin-3-ylamino]pyridine-2-sulfonamide]
- inhibition at up to 1 µM: ≥ 50%

SMILES: Cc1c(S(N)(=O)=O)ncc(C(=O)N2CC(c3ccc(F)cc3)C2)c1NCc1ccccc1 [Compound 284, 4-(benzylamino)-5-[3-(4-fluorophenyl)azetidine-1-carbonyl]-3-methylpyridine-2-sulfonamide]
- inhibition at up to 1 µM: ≥ 50%

SMILES: COc1ccc(F)c(Nc2c(C(=O)N3CCC(c4ccc(F)cc4)CC3)cnc(S(=O)(=O)Nc3ccon3)c2C)c1 [Compound 268, 4-(2-fluoro-5-methoxyphenylamino)-5-[4-(4-fluorophenyl)piperidine-1-carbonyl]-N-(isoxazol-3-yl)-3-methylpyridine-2-sulfonamide]
- inhibition at up to 1 µM: ≥ 50%

SMILES: COC1(c2ccc(F)cc2)CCN(C(=O)c2cnc(S(N)(=O)=O)c(Cl)c2Nc2cccc(Cl)c2)CC1 [Compound 306, 3-chloro-4-(3-chlorophenylamino)-5-[4-(4-fluorophenyl)-4-methoxypiperidine-1-carbonyl]pyridine-2-sulfonamide]
- inhibition at up to 1 µM: ≥ 50%

SMILES: NS(=O)(=O)c1ncc(C(=O)N2CCC(c3ccc(F)cc3)CC2)c(NCc2cccs2)c1Cl [Compound 231, 3-chloro-5-[4-(4-fluorophenyl)piperidine-1-carbonyl]-4-(thiophen-2-ylmethylamino)pyridine-2-sulfonamide]
- inhibition at up to 1 µM: ≥ 50%

SMILES: Cc1cc(NS(=O)(=O)c2ncc(C(=O)N3CCC(c4ccc(F)cc4)CC3)c(Nc3ccccc3)c2C)sn1 [Compound 277, 5-[4-(4-fluorophenyl)piperidine-1-carbonyl]-3-methyl-N-(3-methylisothiazol-5-yl)-4-(phenylamino)pyridine-2-sulfonamide]
- inhibition at up to 1 µM: ≥ 50%

SMILES: NS(=O)(=O)c1cc(Nc2ccc(Cl)cc2F)c(C(=O)N2CCC(c3ccc(F)cc3)CC2)cn1 [Compound 80, 4-(4-chloro-2-fluorophenylamino)-5-[4-(4-fluorophenyl)piperidine-1-carbonyl]pyridine-2-sulfonamide]
- inhibition at up to 1 µM: ≥ 50%

SMILES: COc1ccc(Nc2c(C(=O)N3CCC(c4ccc(F)cc4)CC3)cnc(S(=O)(=O)Nc3ccon3)c2C)c(C)c1 [Compound 234, 5-[4-(4-fluorophenyl)piperidine-1-carbonyl]-N-(isoxazol-3-yl)-4-(4-methoxy-2-methylphenylamino)-3-methylpyridine-2-sulfonamide]
- inhibition at up to 1 µM: ≥ 50%

SMILES: Cc1c(S(=O)(=O)Nc2ccon2)ncc(C(=O)N2CCC(c3ccc(F)cc3)CC2)c1NCCc1ccccc1 [Compound 222, 5-[4-(4-fluorophenyl)piperidine-1-carbonyl]-N-(isoxazol-3-yl)-3-methyl-4-(phenethylamino)pyridine-2-sulfonamide]
- inhibition at up to 1 µM: ≥ 50%

SMILES: Cc1ccccc1Nc1c(C(=O)N2CCC(c3ccc(F)cc3)CC2)cnc(S(=O)(=O)Nc2ccn(C)n2)c1Cl [Compound 317, 3-chloro-5-[4-(4-fluorophenyl)piperidine-1-carbonyl]-N-(1-methyl-1H-pyrazol-3-yl)-4-(o-tolylamino)pyridine-2-sulfonamide]
- inhibition at up to 1 µM: ≥ 50%

SMILES: Cc1c(S(=O)(=O)Nc2ccn(C)n2)ncc(C(=O)N2CCC(c3ccc(F)cc3)CC2)c1NCc1ccccc1 [Compound 250, 4-(benzylamino)-5-[4-(4-fluorophenyl)piperidine-1-carbonyl]-3-methyl-N-(1-methyl-1H-pyrazol-3-yl)pyridine-2-sulfonamide]
- inhibition at up to 1 µM: ≥ 50%

SMILES: CNC(=O)C1CCCN1S(=O)(=O)c1cc(Nc2ccc(F)cc2C)c(C(=O)N2CCC(c3ccc(F)cc3)CC2)cn1 (stereo not drawn) [Compound 117, 1-{4-(4-fluoro-2-methylphenylamino)-5-[4-(4-fluorophenyl)piperidine-1-carbonyl]pyridin-2-ylsulfonyl}-N-methylpyrrolidine-2-carboxamide]
- inhibition at up to 1 µM: ≥ 50%

SMILES: CCNC(=O)NS(=O)(=O)c1cc(Nc2ccc(Cl)cc2C)c(C(=O)N2CCC(c3ccc(F)cc3)CC2)cn1 [Compound 169, 4-(4-chloro-2-methylphenylamino)-N-(ethylcarbamoyl)-5-[4-(4-fluorophenyl)piperidine-1-carbonyl]pyridine-2-sulfonamide]
- inhibition at up to 1 µM: ≥ 50%

SMILES: Cc1cc(Nc2cc(S(=O)(=O)NC(=O)NC(C)C)ncc2C(=O)N2CCC(c3ccc(F)cc3)CC2)c(C)cc1Cl [Compound 18, 4-(4-chloro-2,5-dimethylphenylamino)-5-[4-(4-fluorophenyl)piperidine-1-carbonyl]-N-(isopropylcarbamoyl)pyridine-2-sulfonamide]
- inhibition at up to 1 µM: ≥ 50%

SMILES: Cc1c(S(=O)(=O)Nc2ccon2)ncc(C(=O)N2CCC(c3ccc(F)cc3)CC2)c1Nc1cc(Cl)ccc1F [Compound 271, 4-(5-chloro-2-fluorophenylamino)-5-[4-(4-fluorophenyl)piperidine-1-carbonyl]-N-(isoxazol-3-yl)-3-methylpyridine-2-sulfonamide]
- inhibition at up to 1 µM: ≥ 50%

SMILES: CONS(=O)(=O)c1ncc(C(=O)N2CCC(c3ccc(F)cc3)CC2)c(Nc2ccc(F)cc2C)c1Cl [Compound 193, 3-chloro-4-(4-fluoro-2-methylphenylamino)-5-[4-(4-fluorophenyl)piperidine-1-carbonyl]-N-methoxypyridine-2-sulfonamide]
- inhibition at up to 1 µM: ≥ 50%

SMILES: Cc1cc(F)ccc1Nc1cc(S(=O)(=O)N2CCNC2=O)ncc1C(=O)N1CCC(c2ccc(F)cc2)CC1 [Compound 144, 1-{4-(4-fluoro-2-methylphenylamino)-5-[4-(4-fluorophenyl)piperidine-1-carbonyl]pyridin-2-ylsulfonyl}imidazolidin-2-one]
- inhibition at up to 1 µM: ≥ 50%

SMILES: Cc1cc(NS(=O)(=O)c2ncc(C(=O)N3CCC(c4ccc(F)cc4)CC3)c(Nc3ccc(F)cc3C)c2Cl)no1 [Compound 40, 3-chloro-4-(4-fluoro-2-methylphenylamino)-5-[4-(4-fluorophenyl)piperidine-1-carbonyl]-N-(5-methylisoxazol-3-yl)pyridine-2-sulfonamide]
- inhibition at up to 1 µM: ≥ 50%

SMILES: Cc1c(S(=O)(=O)Nc2ccon2)ncc(C(=O)N2CCC(c3ccc(F)cc3)CC2)c1Nc1cccc(F)c1F [Compound 254, 4-(2,3-difluorophenylamino)-5-[4-(4-fluorophenyl)piperidine-1-carbonyl]-N-(isoxazol-3-yl)-3-methylpyridine-2-sulfonamide]
- inhibition at up to 1 µM: ≥ 50%

SMILES: Cc1cc(NS(=O)(=O)c2ncc(C(=O)N3CCC(c4ccc(F)cc4)CC3)c(Nc3cccc(F)c3)c2C)sn1 [Compound 267, 5-[4-(4-fluorophenyl)piperidine-1-carbonyl]-4-(3-fluorophenylamino)-3-methyl-N-(3-methylisothiazol-5-yl)pyridine-2-sulfonamide]
- inhibition at up to 1 µM: ≥ 50%
